The values that follow come from patent US20090012009A1, “Composition and Method for Treating Inflammatory Disease” (priority 2007, published 2009).

The structures appear in SMILES notation.

Experiment [1] relates to arthritic rats. To be noted: previous dosing studies; cited from earlier work.
Experiment [2] relates to arthritic rats. Kind of experiment: Arthritis scores, adjuvant-induced arthritis in rats. To be noted: i.p. 5×/week; scale 0-4, scored 2×/week. In kind it is in vivo, rat. How it is done:
(§1) Experimental adjuvant-induced arthritis was induced according to a previously described method (Paulos et al., 2006; van Eden et al., 1996). Briefly, adjuvant was prepared by adding finely ground heat-killed Mycobacterium butyricum(Difco Laboratories, MI, USA) in mineral oil (Sigma-Aldrich, MO, USA) at a final concentration of 1 mg/ml. The adjuvant was kept under constant stirring to ensure homogenous distribution of the mycobacterial particles. Immunized rats were anesthetized with ketamine and xylazine (100 mg/kg and 13 mg/kg, respectively) and injected in the right hind paw with 100 μl of the mycobacterial suspension. Paw inflammation was monitored daily until the first symptoms of RA appeared on the left, non-injected hind paw. […]
(§2) To compare the efficacies of the various folate-hapten conjugates in treating RA, arthritic rats were injected i.p. 5×/week with either: 1) vehicle alone (PBS), 2) 100 nmol/kg of folate-FITC, 3) 30 nmol/kg folate-DNP1, 4) 200 nmol/kg folate-DNP1, 5) 30 nmol/kg folate-DNP2, 6) 200 nmol/kg folate-DNP2, 7) 30 nmol/kg folate-DNP3, 8) 200 nmol/kg folate-DNP3, 9) 30 nmol/kg folate-TNP, or 10) 200 nmol/kg folate-TNP. Paw volumes, arthritis scores, spleen enlargement, bone degradation, and the biodistribution of FR+macrophages were then quantitated as a function of time during therapy, as described below. […]

The target of experiment [3] is T1, hFR-β (Homo sapiens, UniProt P14207).
T1 construct: expressed in transfected cells; host or cells: CHO-β cells (CHO cells expressing hFR-β)
T1 sequence (P14207 17-230): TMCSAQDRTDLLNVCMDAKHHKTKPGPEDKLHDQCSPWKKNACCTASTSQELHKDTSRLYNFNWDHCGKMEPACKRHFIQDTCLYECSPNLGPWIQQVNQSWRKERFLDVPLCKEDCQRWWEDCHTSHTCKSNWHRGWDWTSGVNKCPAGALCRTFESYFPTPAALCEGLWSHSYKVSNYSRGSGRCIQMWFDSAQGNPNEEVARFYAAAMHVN
Put plainly: Relative binding affinity of folate-hapten conjugates, displacement of 3H-folic acid from CHO-β cells. The conditions noted are these: 10 nM 3H-folic acid. How it is done:
The relative binding affinities of folate-hapten conjugates to hFR-β were examined using a previously described method (Reddy et al., 2004). CHO-β cells expressing hFR-β were seeded on 48-well plates at 70% confluence and cultured at 37° C. in folate-deficient RPMI1640 medium (Invitrogen, CA, USA) supplemented with 1× penicillin/streptomycin (Gibco, Calif., USA) and 10% fetal bovine serum (FBS) (Atlanta Biologicals, GA, USA) in a 5% CO2 humidified incubator. Twenty-four hours later, cells were washed twice with PBS (pH 7.4), after which a 10 nM solution of ^3H-folic acid (GE Healthcare, NJ, USA) was added with increasing concentrations (10^−10M to 10^−5M) of either folate-FITC, folate-DNP1, folate-DNP2, folate-DNP3, or folate-TNP in cell culture medium. Cells were incubated at 37° C. for 1 h and washed 3× with 0.5 ml PBS. 0.5 ml of 1.0% sodium dodecyl sulfate (SDS) in PBS was added to each well, and after 5 min, cell lysates were collected and transferred to vials containing scintillation cocktail and counted for radioactivity. Relative binding affinity was defined as the molar ratio required for displacement of 50% of bound ^3H-folic acid from the cell surface.
Background: In a radioligand displacement assay an active substance lowers the binding of a labelled ligand.

Experiment [4] concerns FR-β+ activated macrophages. Put plainly: 99mTc-EC20 biodistribution in spleens and livers of arthritic rats. The conditions noted are these: 4 h after i.p. 99mTc-EC20 (67 nmol/kg); versus PBS-treated group. In kind it is in vivo, rat. How it is done:
To compare the efficacies of the various folate-hapten conjugates in treating RA, arthritic rats were injected i.p. 5×/week with either: 1) vehicle alone (PBS), 2) 100 nmol/kg of folate-FITC, 3) 30 nmol/kg folate-DNP1, 4) 200 nmol/kg folate-DNP1, 5) 30 nmol/kg folate-DNP2, 6) 200 nmol/kg folate-DNP2, 7) 30 nmol/kg folate-DNP3, 8) 200 nmol/kg folate-DNP3, 9) 30 nmol/kg folate-TNP, or 10) 200 nmol/kg folate-TNP. Paw volumes, arthritis scores, spleen enlargement, bone degradation, and the biodistribution of FR+macrophages were then quantitated as a function of time during therapy, as described below.
Paw volumes were measured 2×/week by multiplying length, height, and width of the non-injected hind paw (Paulos et al., 2006). […] Spleen enlargement was assessed 25 days after initial treatment by euthanizing the animal and measuring the weight of the resected organs. Bone degradation of the non-injected hind paw was evaluated by x-ray radiography in one representative rat from each hapten group treated at 200 nmol/kg folate-hapten conjugate. The biodistribution of FR+ macrophages in each treatment group was also quantified using the FR-targeted radioimaging agent, ^99mTc-EC20, which was prepared as described previously (Turk et al., 2002). Briefly, each rat was injected i.p. with 500 μCi of radioactivity at a dose of 67 nmol/kg of EC20. […]

The subject of experiment [5] is arthritic rats. Kind of experiment: Paw volumes of non-injected hind paws, adjuvant-induced arthritis in rats. In kind it is in vivo, rat. The conditions noted are these: i.p. 5×/week, 30 or 200 nmol/kg (folate-FITC 100 nmol/kg). The procedure: as §1, §2

Regarding `Nc1nc2ncc(CNc3ccc(C(=O)NC(CCC(=O)NCCNC(=S)Nc4ccc(C(=O)O)c(-c5c6ccc(=O)cc-6oc6cc(O)ccc56)c4)C(=O)O)cc3)nc2c(=O)[nH]1` (stereo not shown) [folate-FITC, reference compound], in experiment [1], the “daily dose giving optimal responses” value is given as 100 nmol/kg. The “relative potencies in preventing the increase in arthritis score” value in experiment [2] was “TNP=FITC>DNP1>DNP2>DNP3”. In addition, the “rank order of binding affinity of the folate-hapten conjugates” value in experiment [3] is listed as “folate-DNP3>folate-DNP2>folate-DNP 1>folate-TNP>folate-FITC”.

Consider `Nc1nc2ncc(CNc3ccc(C(=O)N[C@H](CCC(=O)N[C@H](CCCCNc4c([N+](=O)[O-])cc([N+](=O)[O-])cc4[N+](=O)[O-])C(=O)O)C(=O)O)cc3)nc2c(=O)[nH]1` [folate-TNP], for which the “relative potencies in preventing the increase in arthritis score” value in experiment [2] is “TNP=FITC>DNP1>DNP2>DNP3”. For the same compound, the “uptake of 99mTc-EC20 in spleens and livers” value in experiment [4] was “folate-DNP1 and folate-DNP2 appeared to be superior”. In addition, the “rank order of binding affinity of the folate-hapten conjugates” value in experiment [3] is “folate-DNP3>folate-DNP2>folate-DNP 1>folate-TNP>folate-FITC”. The “paw swelling (volume changes in non-injected hind paws)” value in experiment [5] was “more effective than any of the folate-DNP conjugates, but similar in potency to folate-FITC”.
